According to PubChem BioAssay (NCI):
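96-well plates; 48 h exposure; 5 concentrations. Endpoints by linear interpolation between flanking doses. Not reached: highest tested concentration assigned. Here, GI50 denotes the concentration required for 50% inhibition of growth. TGI: concentration producing complete growth inhibition.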

Tests used:
Assay in all cases: NCI anticancer screen, dose series, 48 h
CAKI-1 renal = tested on: CAKI-1 renal
NCI-H460 lung = tested on: NCI-H460 lung
LOX IMVI melanoma = tested on: LOX IMVI melanoma
OVCAR-4 ovarian = tested on: OVCAR-4 ovarian
EKVX NSCLC = tested on: EKVX NSCLC
SR leukemia = tested on: SR leukemia
A549 NSCLC = tested on: A549 NSCLC
RPMI-8226 leukemia = tested on: RPMI-8226 leukemia
TK-10 renal = tested on: TK-10 renal
MOLT-4 leukemia = tested on: MOLT-4 leukemia
HCC-2998 colon = tested on: HCC-2998 colon
OVCAR-5 ovarian = tested on: OVCAR-5 ovarian
M14 melanoma = tested on: M14 melanoma
A498 renal = tested on: A498 renal
SW-620 colon = tested on: SW-620 colon
UACC-62 melanoma = tested on: UACC-62 melanoma
HCT-15 colon = tested on: HCT-15 colon
HL-60(TB) leukemia = tested on: HL-60(TB) leukemia
NCI-H23 lung = tested on: NCI-H23 lung
MCF7 breast = tested on: MCF7 breast
SK-OV-3 ovarian = tested on: SK-OV-3 ovarian
SK-MEL-28 melanoma = tested on: SK-MEL-28 melanoma
HT29 colon = tested on: HT29 colon
NCI-H226 lung = tested on: NCI-H226 lung
SN12C renal = tested on: SN12C renal
OVCAR-8 ovarian = tested on: OVCAR-8 ovarian
UO-31 renal = tested on: UO-31 renal
PC-3 prostate = tested on: PC-3 prostate
SNB-19 CNS = tested on: SNB-19 CNS
U251 CNS = tested on: U251 CNS
NCI/ADR-RES ovarian = tested on: NCI/ADR-RES ovarian
SF-268 CNS = tested on: SF-268 CNS
SNB-75 CNS = tested on: SNB-75 CNS
HS 578T breast = tested on: HS 578T breast
K-562 leukemia = tested on: K-562 leukemia
ACHN renal = tested on: ACHN renal
OVCAR-3 ovarian = tested on: OVCAR-3 ovarian
786-0 renal = tested on: 786-0 renal
SF-539 CNS = tested on: SF-539 CNS
BT-549 breast = tested on: BT-549 breast
HOP-92 NSCLC = tested on: HOP-92 NSCLC
SF-295 CNS = tested on: SF-295 CNS
DU-145 prostate = tested on: DU-145 prostate
MDA-MB-435 = tested on: MDA-MB-435
HOP-62 NSCLC = tested on: HOP-62 NSCLC
UACC-257 melanoma = tested on: UACC-257 melanoma
CCRF-CEM leukemia = tested on: CCRF-CEM leukemia
MALME-3M melanoma = tested on: MALME-3M melanoma
IGROV1 ovarian = tested on: IGROV1 ovarian
SK-MEL-2 melanoma = tested on: SK-MEL-2 melanoma
COLO 205 colon = tested on: COLO 205 colon
NCI-H522 lung = tested on: NCI-H522 lung
HCT-116 colon = tested on: HCT-116 colon
MDA-MB-231 breast = tested on: MDA-MB-231 breast
T-47D breast = tested on: T-47D breast
RXF 393 renal = tested on: RXF 393 renal
KM12 colon = tested on: KM12 colon
SK-MEL-5 melanoma = tested on: SK-MEL-5 melanoma

## COc1ccc2c(c1)C/C(=C\c1ccc(O)c(OC)c1)C2=O
CAKI-1 renal
  TGI: > 100 µM
NCI-H460 lung
  TGI: > 100 µM
LOX IMVI melanoma
  TGI: > 100 µM
OVCAR-4 ovarian
  TGI: > 100 µM
EKVX NSCLC
  TGI: > 100 µM
SR leukemia
  TGI: > 100 µM
A549 NSCLC
  TGI: > 100 µM
RPMI-8226 leukemia
  TGI: > 100 µM
TK-10 renal
  TGI: > 100 µM
MOLT-4 leukemia
  TGI: > 100 µM
HCC-2998 colon
  TGI: > 100 µM
OVCAR-5 ovarian
  TGI: > 100 µM
M14 melanoma
  TGI: > 100 µM
A498 renal
  TGI: > 100 µM
SW-620 colon
  TGI: > 100 µM
UACC-62 melanoma
  TGI: > 100 µM
HCT-15 colon
  TGI: > 100 µM
HL-60(TB) leukemia
  TGI: > 100 µM
NCI-H23 lung
  TGI: > 100 µM
MCF7 breast
  TGI: > 100 µM
SK-OV-3 ovarian
  TGI: > 100 µM
SK-MEL-28 melanoma
  TGI: > 100 µM
HT29 colon
  TGI: > 100 µM
NCI-H226 lung
  TGI: > 100 µM
SN12C renal
  TGI: > 100 µM
OVCAR-8 ovarian
  TGI: > 100 µM
UO-31 renal
  TGI: > 100 µM
PC-3 prostate
  TGI: > 100 µM
SNB-19 CNS
  TGI: > 100 µM
U251 CNS
  TGI: > 100 µM
NCI/ADR-RES ovarian
  TGI: > 100 µM
SF-268 CNS
  TGI: > 100 µM
SNB-75 CNS
  TGI: > 100 µM
HS 578T breast
  TGI: > 100 µM
K-562 leukemia
  TGI: > 100 µM
ACHN renal
  TGI: > 100 µM
OVCAR-3 ovarian
  TGI: > 100 µM
786-0 renal
  TGI: > 100 µM
SF-539 CNS
  TGI: > 100 µM
BT-549 breast
  TGI: > 100 µM

## O=C1c2ccccc2-c2nc(-c3cccnc3)cc3c2c1nc1ccccc13
CAKI-1 renal
  TGI: > 100 µM
HOP-92 NSCLC
  TGI: > 100 µM
NCI-H460 lung
  TGI: > 100 µM
LOX IMVI melanoma
  TGI: > 100 µM
OVCAR-4 ovarian
  TGI: > 100 µM
EKVX NSCLC
  TGI: > 100 µM
SR leukemia
  TGI: > 100 µM
SF-295 CNS
  TGI: > 100 µM
A549 NSCLC
  TGI: > 100 µM
RPMI-8226 leukemia
  TGI: > 100 µM
TK-10 renal
  TGI: > 100 µM
MOLT-4 leukemia
  TGI: > 100 µM
DU-145 prostate
  TGI: > 100 µM
HCC-2998 colon
  TGI: > 100 µM
OVCAR-5 ovarian
  TGI: > 100 µM
M14 melanoma
  TGI: > 100 µM
SW-620 colon
  TGI: > 100 µM
UACC-62 melanoma
  TGI: > 100 µM
MDA-MB-435
  TGI: 34.7 µM
HCT-15 colon
  TGI: > 100 µM
HL-60(TB) leukemia
  TGI: > 100 µM
NCI-H23 lung
  TGI: > 100 µM
MCF7 breast
  TGI: > 100 µM
SK-OV-3 ovarian
  TGI: > 100 µM
SK-MEL-28 melanoma
  TGI: > 100 µM
HOP-62 NSCLC
  TGI: > 100 µM
HT29 colon
  TGI: > 100 µM
NCI-H226 lung
  TGI: > 100 µM
UACC-257 melanoma
  TGI: > 100 µM
CCRF-CEM leukemia
  TGI: > 100 µM
SN12C renal
  TGI: > 100 µM
MALME-3M melanoma
  TGI: > 100 µM
OVCAR-8 ovarian
  TGI: > 100 µM
UO-31 renal
  TGI: > 100 µM
IGROV1 ovarian
  TGI: > 100 µM
PC-3 prostate
  TGI: > 100 µM
SNB-19 CNS
  TGI: > 100 µM
SK-MEL-2 melanoma
  TGI: > 100 µM
COLO 205 colon
  TGI: > 100 µM
U251 CNS
  TGI: > 100 µM
NCI-H522 lung
  TGI: > 100 µM
NCI/ADR-RES ovarian
  TGI: > 100 µM
SF-268 CNS
  TGI: > 100 µM
HCT-116 colon
  TGI: > 100 µM
SNB-75 CNS
  TGI: > 100 µM
HS 578T breast
  TGI: > 100 µM
K-562 leukemia
  TGI: > 100 µM
ACHN renal
  TGI: > 100 µM
OVCAR-3 ovarian
  TGI: > 100 µM
786-0 renal
  TGI: > 100 µM
SF-539 CNS
  TGI: > 100 µM
MDA-MB-231 breast
  TGI: > 100 µM
BT-549 breast
  TGI: > 100 µM

## COc1ccc2c(c1)c(C1(c3cn(C)c4ccc(OC)cc34)C(=O)Nc3ccc(F)cc31)cn2C
CAKI-1 renal
  GI50: 2.06 µM
  TGI: 45.3 µM
HOP-92 NSCLC
  GI50: 3.84 µM
  TGI: 58.7 µM
NCI-H460 lung
  GI50: 3.65 µM
  TGI: 14.6 µM
LOX IMVI melanoma
  GI50: 4.45 µM
  TGI: > 100 µM
OVCAR-4 ovarian
  GI50: 3.92 µM
  TGI: > 100 µM
EKVX NSCLC
  GI50: 3.05 µM
  TGI: > 100 µM
SR leukemia
  GI50: 5.59 µM
  TGI: 82 µM
SF-295 CNS
  GI50: 2.95 µM
  TGI: 18.3 µM
T-47D breast
  GI50: 4.75 µM
  TGI: > 100 µM
RPMI-8226 leukemia
  GI50: 6.77 µM
  TGI: > 100 µM
MOLT-4 leukemia
  GI50: 4.57 µM
  TGI: 50.1 µM
DU-145 prostate
  GI50: 11.5 µM
  TGI: > 100 µM
HCC-2998 colon
  GI50: 4.53 µM
  TGI: > 100 µM
OVCAR-5 ovarian
  GI50: 9.94 µM
  TGI: 84.8 µM
M14 melanoma
  GI50: 4.19 µM
  TGI: 68.8 µM
A498 renal
  GI50: 13.6 µM
  TGI: 75.3 µM
SW-620 colon
  GI50: 7.48 µM
  TGI: > 100 µM
UACC-62 melanoma
  GI50: 7.42 µM
  TGI: 56.2 µM
MDA-MB-435
  GI50: 3.77 µM
  TGI: > 100 µM
RXF 393 renal
  GI50: 3.74 µM
  TGI: 16.2 µM
HCT-15 colon
  GI50: 5 µM
  TGI: > 100 µM
NCI-H23 lung
  GI50: 6.06 µM
  TGI: > 100 µM
MCF7 breast
  GI50: 3.61 µM
  TGI: > 100 µM
SK-OV-3 ovarian
  GI50: 12.9 µM
  TGI: > 100 µM
SK-MEL-28 melanoma
  GI50: 5.3 µM
  TGI: 25.5 µM
HOP-62 NSCLC
  GI50: 7.62 µM
  TGI: > 100 µM
HT29 colon
  GI50: 3.52 µM
  TGI: 23 µM
NCI-H226 lung
  GI50: 11.9 µM
  TGI: > 100 µM
UACC-257 melanoma
  GI50: 5.28 µM
  TGI: > 100 µM
CCRF-CEM leukemia
  GI50: 4.56 µM
  TGI: > 100 µM
SN12C renal
  GI50: 4.82 µM
  TGI: 31.5 µM
MALME-3M melanoma
  GI50: 6.52 µM
  TGI: 89.5 µM
OVCAR-8 ovarian
  GI50: 4.28 µM
  TGI: > 100 µM
UO-31 renal
  GI50: 2.27 µM
  TGI: > 100 µM
IGROV1 ovarian
  GI50: 4.26 µM
  TGI: > 100 µM
PC-3 prostate
  GI50: 3.88 µM
  TGI: > 100 µM
SNB-19 CNS
  GI50: 12.2 µM
  TGI: > 100 µM
SK-MEL-2 melanoma
  GI50: 3.62 µM
  TGI: 9.64 µM
COLO 205 colon
  GI50: 2.62 µM
  TGI: 6.36 µM
U251 CNS
  GI50: 4.24 µM
  TGI: > 100 µM
NCI-H522 lung
  GI50: 2.67 µM
  TGI: 7.75 µM
NCI/ADR-RES ovarian
  GI50: 4.66 µM
  TGI: > 100 µM
SF-268 CNS
  GI50: 5.7 µM
  TGI: > 100 µM
KM12 colon
  GI50: 5.63 µM
  TGI: > 100 µM
HCT-116 colon
  GI50: 3.84 µM
  TGI: 15.3 µM
SNB-75 CNS
  GI50: 3.09 µM
  TGI: > 100 µM
HS 578T breast
  GI50: 9.01 µM
  TGI: > 100 µM
K-562 leukemia
  GI50: 4.61 µM
  TGI: > 100 µM
ACHN renal
  GI50: 4.63 µM
  TGI: > 100 µM
OVCAR-3 ovarian
  GI50: 10.2 µM
  TGI: 87.4 µM
786-0 renal
  GI50: 6.51 µM
  TGI: > 100 µM
SF-539 CNS
  GI50: 15.6 µM
  TGI: 85.2 µM
SK-MEL-5 melanoma
  GI50: 5.64 µM
  TGI: 18.9 µM
MDA-MB-231 breast
  GI50: 2.89 µM
  TGI: 18.6 µM
BT-549 breast
  GI50: 10.6 µM
  TGI: 50.8 µM
